Source: PubChem BioAssay (NCI)
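Dose response: 5 concentrations. Exposure: 48 h. Format: 96-well plates. Endpoint: linear interpolation; highest concentration if not reached. Here, GI50 denotes the concentration required for 50% inhibition of growth. TGI: total growth inhibition.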

Tests used:
Experiment in all cases: growth of human tumour cells (NCI), 48 h
[1] = system: TK-10 renal
[2] = system: SN12C renal
[3] = system: CCRF-CEM leukemia
[4] = system: DU-145 prostate
[5] = system: SF-268 CNS
[6] = system: SK-MEL-2 melanoma
[7] = system: A498 renal
[8] = system: SNB-75 CNS
[9] = system: SK-MEL-5 melanoma
[10] = system: NCI/ADR-RES ovarian

Compound | GI50 [1] | TGI [1] | GI50 [2] | TGI [2] | GI50 [3] | TGI [3] | GI50 [4] | TGI [4] | GI50 [5] | TGI [5] | GI50 [6] | TGI [6] | GI50 [7] | TGI [7] | GI50 [8] | TGI [8] | GI50 [9] | TGI [9] | GI50 [10] | TGI [10]
O=C(NO)c1ccc(CN(c2cnccn2)c2cnccn2)cc1 | 11.3 µM | 42 µM | 18.3 µM | 42.5 µM | 11.2 µM | > 100 µM | 9.26 µM | > 100 µM | 16.3 µM | 32.7 µM | 12.2 µM | 27 µM | 10.3 µM | 28.3 µM | 14.6 µM | 38.7 µM | 13.1 µM | 26.1 µM | 10.3 µM | 37.4 µM
COc1ccc(Cc2cnc(NC(=O)c3ccc4c(c3)OCCO4)s2)cc1 | 0.406 µM | 35.3 µM | 0.0556 µM | > 100 µM | 0.0388 µM | > 100 µM | 0.037 µM | > 41.1 µM | 0.211 µM | > 100 µM | 0.0545 µM | > 78.4 µM | 0.0159 µM | 0.0592 µM | 0.0192 µM | 44 µM | 0.0268 µM | 0.168 µM | 0.024 µM | > 100 µM
CCCCCCCCCCN1CCC(N2CCCCC2)CC1 | 2.08 µM | 5.71 µM | 4.81 µM | 19.3 µM | 2.08 µM | 9.48 µM | 9.64 µM | 21.9 µM | 4.1 µM | 17 µM | 2.43 µM | 6.29 µM | 9.27 µM | 21.7 µM | 2.06 µM | 6.12 µM | 1.54 µM | 2.87 µM | 6.76 µM | 20.2 µM
COc1ccc(/C=C(/c2ccccc2)[N+](=O)[O-])cc1 | 1.98 µM | 3.93 µM | 1.36 µM | 2.9 µM | 0.415 µM | 3.32 µM | 1.65 µM | 3.05 µM | 1.82 µM | 3.77 µM | 1.92 µM | 4.44 µM | 1.01 µM | 2.24 µM | 1.16 µM | 2.44 µM | 1.82 µM | 3.29 µM | 1.75 µM | 4.66 µM
COc1ccc2c3c(Nc4ccc(/C(C)=N/O)cc4)[nH]c4ccccc4c-3c(N=O)c2c1 | 5.05 µM | 71.7 µM | 7.06 µM | 23 µM | 1.09 µM | 2.92 µM | 2.04 µM | 4.79 µM | 1.07 µM | 34.9 µM | 18.4 µM | 40.6 µM | 12.9 µM | 27.2 µM | 44.9 µM | 75.3 µM | 3.76 µM | 14.8 µM | 5.78 µM | 20.2 µM
Cc1ncc([N+](=O)[O-])n1CCNS(=O)(=O)CCCn1ncnc1[N+](=O)[O-] | – | > 100 µM | – | > 100 µM | – | > 100 µM | – | > 100 µM | – | > 100 µM | – | > 100 µM | – | > 100 µM | – | > 100 µM | – | > 100 µM | – | > 100 µM
O=[N+]([O-])c1ccc(CSCc2ccc(Cl)cc2)cc1 | – | > 100 µM | – | > 100 µM | – | 38.7 µM | – | > 100 µM | – | > 100 µM | – | > 100 µM | – | > 100 µM | – | > 100 µM | – | > 100 µM | – | > 100 µM
C/C(=N\NC(=S)N1CC2CCC(CC2)C1)c1ccccn1 | 0.405 µM | 1.78 µM | 0.228 µM | 2.03 µM | 0.0335 µM | – | 0.408 µM | 2.83 µM | 0.185 µM | 2.4 µM | 0.419 µM | 1.99 µM | 0.416 µM | 1.91 µM | 0.643 µM | 2.07 µM | 0.133 µM | 0.852 µM | < 0.0177 µM | 2.43 µM
CC(O)CC(O)(C(F)(F)F)C(F)(F)F (stereo not drawn) | – | > 10 µM | – | > 10 µM | – | > 10 µM | – | > 10 µM | – | > 10 µM | – | > 10 µM | – | > 10 µM | – | > 10 µM | – | > 10 µM | – | > 10 µM
C[C@]12CC[C@@H]3c4ccc(O)c([N+](=O)[O-])c4CC[C@H]3[C@@H]1CC[C@@H]2NS(=O)(=O)c1cccc(Br)c1 | 2.92 µM | 8.98 µM | 1.72 µM | 3.54 µM | 2.65 µM | 10.4 µM | 3.6 µM | 12.4 µM | 2.99 µM | 10.3 µM | 2.35 µM | 5.34 µM | 2.06 µM | 5.87 µM | 1.19 µM | 2.7 µM | 1.67 µM | 3.11 µM | 2.69 µM | 8.55 µM
COc1ccc2c(c1)C(C)Cc1c(ncnc1-n1cnc3cc(C)ccc31)N2C (stereo not drawn) | – | – | 0.38 µM | 20.5 µM | 0.0324 µM | 14.5 µM | 0.325 µM | 12.1 µM | 0.222 µM | 15 µM | 0.187 µM | 13.4 µM | 0.0255 µM | 0.0889 µM | 0.0529 µM | 19.9 µM | 0.0753 µM | 0.589 µM | 0.0575 µM | 59.5 µM
C=CCN1CC2CON(C(=O)C(OC)(c3ccccc3)C(F)(F)F)C2C1C(C)C (stereo not drawn) | 99.3 µg/mL | – | 41.9 µg/mL | – | 15.2 µg/mL | 62 µg/mL | 54 µg/mL | – | 70.5 µg/mL | – | 27.8 µg/mL | – | 23.5 µg/mL | 92 µg/mL | 38.4 µg/mL | – | – | – | 34.2 µg/mL | –
